Experimental data taken from US20140275049A1, “SUBSTITUTED PYRAZOLE ANALOGS As RAR ANTAGONISTS” (Eli Lilly and Company, priority 2011, published 2014).

Columns and labels:
human RARγ LBD = target: T1, human RARγ LBD (Homo sapiens, UniProt P13631); assay: RARγ SRC-2 coactivator recruitment assay (agonist mode); format: biochemical; details: maximum stimulation relative to fitted top of TTNPB standard curve
T1 sequence (P13631 185-419 limits assumed): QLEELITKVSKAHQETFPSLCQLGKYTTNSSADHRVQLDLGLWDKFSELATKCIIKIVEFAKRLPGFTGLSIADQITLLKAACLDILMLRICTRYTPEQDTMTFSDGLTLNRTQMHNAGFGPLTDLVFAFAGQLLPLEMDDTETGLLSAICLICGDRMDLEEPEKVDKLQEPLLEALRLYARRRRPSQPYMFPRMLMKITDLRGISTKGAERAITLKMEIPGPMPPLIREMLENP
T1 sequence (P19793 227-458 partner limits assumed): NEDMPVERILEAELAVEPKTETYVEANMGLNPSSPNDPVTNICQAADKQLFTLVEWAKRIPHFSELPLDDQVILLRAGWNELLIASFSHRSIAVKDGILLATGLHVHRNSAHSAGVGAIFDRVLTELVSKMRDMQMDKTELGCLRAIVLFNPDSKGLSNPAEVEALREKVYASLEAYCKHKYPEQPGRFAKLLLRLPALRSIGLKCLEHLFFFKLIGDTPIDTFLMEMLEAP
From the text: The RARγ SRC-2 Coactivator recruitment assay utilizes the ligand binding domain (LBD) of RARγ with its binding partner RXRα to determine the ability of a compound to enhance the recruitment of the co-activator SRC-2 to the receptor complex. Enhanced recruitment of SRC2 is known to be reflective of an agonist confirmation of the RARγ receptor. The RARγ LBD and SRC2 peptides are covalently linked to AlphaScreen® beads such that enhanced protein-protein interactions can be assessed by energy transfer. Coactivator recruitment assays are performed using AlphaScreen® technology (Perkin Elmer USA) using a 6X-Histidine tagged human RARγ LBD and GST tagged hSRC-2 protein. Unlabelled RXRα LBD is added as a silent heterodimer partner. Nickel chelated donor beads are used to bind RARγ LBD and anti-GST acceptor beads are used to bind SRC-2. Serially diluted test compound is added in concentrations ranging from 10 μM to 500 pM to 20 nM human RARγ receptor, 25 nM RXRα LBD, and 5 nM SRC-2 protein in a buffer containing 25 mM HEPES (pH 7.5), 100 mM NaCl, 0.1% Bovine Serum Albumin (fraction V), and 2 mM DTT containing 16.67 μg/ml of nickel chelated donor beads and 16.67 μg/ml of anti GST acceptor beads in a final volume of 15 μl per well in a white 384 shallow well proxiplate. The RAR agonist, TTNPB, is used as a standard on each plate and is added in concentrations ranging from 100 nM to 5 pM. After incubating for 12 hours at room temperature, read the plate on a Perkin Elmer Envision using standard AlphaScreen® parameters for excitation and fluorescence. Use the data to calculate an EC50 for compounds after fitting the dose-response curves to a 4-parameter logistic fit. Calculate the percent stimulation using the fitted top of the TTNPB standard curve as a comparator.

[1] = target: T2, Gal4 (DBD) RARγ (LBD) hybrid receptor (Homo sapiens, UniProt P13631); assay: Gal4 reporter assay to determine RAR receptor antagonist activity; format: cell-based; details: HEK 293 cells, antagonist mode against EC80 ATRA, 24 hours, luciferase
T2 construct: Gal4 (DBD) RARγ (LBD), or the Gal4 (DBD) RARβ (LBD) hybrid receptor; expressed in transfected cells; host or cells: HEK 293
T2 sequence (P13631 185-419 limits assumed): T1 sequence (P13631 185-419 limits assumed)
From the text: For cell-based assays, human embryonic kidney HEK 293 cells are transfected with receptor and reporter gene plasmids using Fugene. The reporter plasmid containing five Gal4 binding sites and a major late promoter of adenovirus upstream of the luciferase reporter cDNA is transfected together with a plasmid constitutively expressing the Gal4 DNA binding domain (DBD) and the RARα ligand binding domain (LBD), Gal4 (DBD) RARγ (LBD), or the Gal4 (DBD) RARβ (LBD) hybrid receptor using a SV40 promoter. Cells are transfected in poly-d-lysine coated T175 cm flasks in DMEM media with 5% charcoal-stripped Fetal Bovine Serum (FBS). After an overnight incubation, transfected cells are trypsinized, plated in opaque 96 well dishes in DMEM media containing 5% charcoal-stripped FBS, incubated for 4 h, and then exposed to 0.17 nM to 10 μM of test compound in half log dilutions. To determine the antagonist activity of the test compound, EC80 concentrations of agonist for each receptor is also added to the media (15 nM all-trans retinoic acid, ATRA, for RARα and RARγ, 10 nM of ATRA for RARβ). After 24 hours of incubation with compounds, cells are lysed and luciferase activity is determined. Data are fitted to a four parameter-fit logistics to determine IC50 values. The maximum % inhibition is determined versus the cellular response to 0.25% DMSO in the absence of ATRA.

SMILES	% Stimulation (human RARγ LBD) [%]	Kb [1] [nM]
CC(C)(C)c1cc(-c2cc(-c3ccc(C(=O)O)cc3)nn2-c2ccc(S(C)(=O)=O)cc2)cc(C(C)(C)C)c1 [Example 19, 4-[5-(3,5-Di-tert-butylphenyl)-1-(4-methylsulfonylphenyl)pyrazol-3-yl]benzoic Acid]	−3	34.6
CC(C)(C)c1cc(-c2cc(-c3ccc(C(=O)O)cc3)nn2-c2ccc(C(=O)N3CCOCC3)cc2)cc(C(C)(C)C)n1 [Example 8, 4-[5-(2,6-Di-tert-butyl-4-pyridyl)-1-[4-(morpholine-4-carbonyl)phenyl]pyrazol-3-yl]benzoic acid]	0.6	28.7
CN1CCN(C(=O)c2ccc(-n3nc(-c4ccc(C(=O)O)cc4)cc3-c3cc(C(C)(C)C)cc(C(C)(C)C)c3)cc2)CC1 [Example 1, 4-[5-(3,5-Di-tert-butylphenyl)-1-[4-(4-methylpiperazine-1-carbonyl)phenyl]pyrazol-3-yl]benzoic Acid]	0.2	23 ± 5.36
CC(C)Sc1cc(-c2cc(-c3ccc(C(=O)O)cc3)nn2-c2ccc(C(=O)N(C)C)cc2)cc(C(C)(C)C)c1 [Example 12, 4-[5-(3-tert-Butyl-5-isopropylsulfanyl-phenyl)-1-[4-(dimethylcarbamoyl)phenyl]pyrazol-3-yl]benzoic Acid]	8.4	30.2
